Patent publication US9943509B2, “Methods, compounds, and compositions for the treatment of musculoskeletal diseases” (UNIVERSITY OF SOUTHERN CALIFORNIA, priority 2013, dated 2018)
“Also recorded” adds a separate entry of the source.

Tests used:
Dmd^mdx mice [1] = assay: Bone marrow mesenchymal stem cell (MSC) counts by CFU-F assay after treatment; type: in vivo, mouse; conditions: subcutaneous, Compound 7 0.5, 1.0 and 2.0 mg/kg/day, A(1-7) 0.5 mg/kg, 9 weeks, femur marrow cultured 8 days, vs vehicle
Description: (§1) FIG. 3: Six different subcutaneously delivered treatment groups (n=6/group) were evaluated—wild-type (WT) C57BL/10SnJ control mice plus five groups of Dmd^mdx (C57BL/10ScSn-Dmd^mdx/J) mice: vehicle (saline/Tween 20), A(1-7) 0.5 mg/kg/day, and Compound 7 at three doses (0.5, 1.0, and 2.0 mg/kg/day). At necropsy, following 9 weeks of treadmill exercise (12-15 m/min 3 times per week) and treatment, bone marrow was collected from both femurs, cultured 8 days, and mesenchymal stem cell (MSC) counts were recorded.
(§2) Methods: 10 weeks old male Dmd^mdx mice were exercised at 12-15 m/min for 30 min 3 times a week for 10 weeks. The absence of dystrophin in Dmd^mdx mice produces a vastly different phenotype than dystrophin deficiency in humans does [De Luca et al., 2003]. […] In this study, 10 weeks of exercise during treatment was used. There were six different treatment groups—Wild Type plus five groups of Dmd^mdx mice: Vehicle, Compound 7 0.5 mg/kg/day, Compound 7 1 mg/kg/day, Compound 7 2.0 mg/kg/day, and 0.5 mg/kg/day Angiotensin (1-7).
Necropsy: At the conclusion of the 9-week observation period (19 weeks of age), all animals were euthanized, and tissue samples and bone marrow (below) were collected. The tissues collected were the diaphragm, gastrocnemius muscle, soleus muscle, tibialis anterior muscle, plantaris muscle and heart. […]

Dmd^mdx mice [2] = assay: Weights test of forelegs grip strength (grip score); type: in vivo, mouse
Description: FIG. 2: Performance on the weights test and calculation of grip score [Deacon, 2013] allowed a measure of forepaw grip strength was recorded following 9 weeks of treadmill exercise (12-15 m/min 3 times per week) and treatment. Six different subcutaneously delivered treatment groups (n=6/group) were evaluated—wild-type (WT) C57BL/10SnJ control mice plus five groups of Dmd^mdx (C57BL/10ScSn-Dmd^mdx/J) mice: vehicle (saline/Tween 20), A(1-7) 0.5 mg/kg/day, and Compound 7 at three doses (0.5, 1.0, and 2.0 mg/kg/day).
(§3) Effect of administration of a non-peptidic small molecule Mas agonist (“Mas agonist”), Compound 7, once daily by subcutaneous injection for 10 weeks in comparison with Angiotensin (1-7), a peptide shown in the literature to improve outcomes in mdx mice.
(§4) Test Articles: (1) Compound 7 in Tween in saline (0.5, 1 or 2 mg/kg/day); (2) A(1-7) in saline (0.5 mg/kg/day)
Methods: 10 weeks old male Dmd^mdx mice were exercised at 12-15 m/min for 30 min 3 times a week for 10 weeks. […]
If the mouse is unsuccessful at lifting a particular weight for 3 seconds in all 3 attempts then the weight lower than the current weight was recorded as the last successful weight lifted by the mouse. The number of seconds (0 or 1 or 2) was recorded for the highest weight the mouse can lift. […]

Dmd^mdx mice [3] = assay: Histological evaluation of H&E stained diaphragm; type: in vivo, mouse; conditions: subcutaneous, Compound 7 0.5, 1.0, 2.0 mg/kg/day, A(1-7) 0.5 mg/kg/day, 9 weeks, 5 random 40× fields, vs saline
Description: as §1, with “4: Histological evaluation:” for “3:”, “diaphragms were collected, fixed for 2 days in foramalin, paraffin embedded, sectioned,” for “bone marrow was collected from both femurs, cultured 8 days,”, “H&E stained.” for “mesenchymal stem cell (MSC) counts were recorded.”
FIG. 5: Histological evaluation: H&E stained diaphragm section, prepared as described in FIG. 4, were analyzed by for degenerating and regenerating fibers as well as inflammation. For each animal (n=6 per treatment group) 5 random 40× fields were taken across the diaphragm section and analyzed. (A) Degenerating fibers were counted as deadened fibers co-localized with an open space. […] Compound 7 across the dosage was similar to Dmd^mdx mice treated with A(1-7). (B) The number of regenerating fibers per field were counted as healthy fibers appearing with basophilic staining. […] (C) Inflammation was quantified as loci of 10 or more inflammatory cells.
as §2
Necropsy: At the conclusion of the 9-week observation period (19 weeks of age), all animals were euthanized, and tissue samples and bone marrow (below) were collected. The tissues collected were the diaphragm, gastrocnemius muscle, soleus muscle, tibialis anterior muscle, plantaris muscle and heart. The gastrocnemius muscle, soleus muscle, tibialis anterior muscle, plantaris muscle from the left leg as well as the diaphragm and heart were fixed in formalin and stored in 70% EtOH for hematoxylin and eosin (H&E) staining.
Histological Evaluation of the Diaphragm: The diaphragm was embedded in paraffin, sectioned and stained by H & E (hematoxylin and eosin). The parameters were assessed include (1) the number of regenerating fibers as defined by basophilic fibers; (2) number of degenerating fibers and the number of inflammatory loci (clusters of 10 or more inflammatory cells). Five random 40× fields per diaphragm were evaluated.

Dmd^mdx mice [4] = assay: Inverted grid test of grip strength (hang time) in treadmill-exercised mice; type: in vivo, mouse
Description: FIG. 1: Inverted Grid Test: Mouse hang times were recorded on an inverted grid test of grip strength following 8 weeks of treadmill exercise (12-15 m/min 3 times per week) and treatment. Six different subcutaneously delivered treatment groups (n=6/group) were evaluated—wild-type (WT) C57BL/10SnJ control mice plus five groups of Dmd^mdx (C57BL/10ScSn-Dmd^mdx/J) mice: vehicle (saline/Tween 20), A(1-7) 0.5 mg/kg/day, and Compound 7 at three doses (0.5, 1.0, and 2.0 mg/kg/day).
as §3, §4
as §2, with “(1-7). […]” for “(1-7).”

[5] = system: mice chronically infused with AngII; conditions: AngII/A(1-7) co-treatment vs AngII infusion alone; Cisternas et al., 2015; cited from earlier work
[6] = system: Dmd^mdx and Sgcd−/− mouse models of muscular dystrophy; conditions: Dmd^mdx and Sgcd−/− mice; Acuña et al., 2014; Sabharwal et al., 2012; cited from earlier work
[7] = system: cardiac fibrogenesis and remodeling; conditions: Iwata et al., 2005; Grobe et al., 2007; cited from earlier work

Molecule | bone marrow MSC counts (Dmd^mdx mice [1]) | weights test of grip strength, comparison with A(1-7) (Dmd^mdx mice [2]; Compound 7 0.5, 1 or 2 mg/kg/day vs A(1-7) 0.5 mg/kg/day) | muscle strength by the weights test of grip strength (Dmd^mdx mice [2]; once daily subcutaneous, treadmill exercise, summary of FIG. 2) | inflammation: loci of 10 or more inflammatory cells in diaphragm (Dmd^mdx mice [3]) | number of degenerating fibers in diaphragm (Dmd^mdx mice [3]) | number of regenerating (basophilic) fibers per field in diaphragm (Dmd^mdx mice [3]) | muscle strength by the inverted grid test (Dmd^mdx mice [4]; once daily subcutaneous, treadmill exercise, summary of FIG. 1) | hang time on the inverted grid test (Dmd^mdx mice [4]; subcutaneous 2.0 mg/kg/day, 8 weeks of treadmill exercise and treatment, vs vehicle treated Dmd^mdx, n=6/group, t-test) | gastrocnemius muscle fiber diameter [5] | performance on the weights test [5] | fibrosis [6] | measures of muscle strength [6] | oxidative stress [6] | cardiac fibrogenesis and remodeling (interstitial myocardial fibrosis, myocyte hypertrophy) [7]
CCCCOC(=O)NS(=O)(=O)c1ccc(OC(F)(F)F)cc1-c1ccc(Cn2ccnc2)cn1 [Compound 7, butyl ((2-(5-((1H-imidazol-1-yl)methyl)pyridin-2-yl)-4-(trifluoromethoxy)phenyl)sulfonyl)carbamate] | increased bone marrow MSC counts | superior to A(1-7) | increased muscle strength | significantly increased number of regenerating fibers | reduction in the number of degenerative fibers; also recorded: reduce degenerating fibers | significantly increased number of regenerating fibers | increased muscle strength | increase in hang time | – | – | – | – | – | –
Asp-Arg-Val-Tyr-Ile-His-Pro (DRVYIHP; printed: Asp-Arg-Val-Tyr-Ile-His-Pro) [A(1-7), endogenous Mas receptor heptapeptide ligand, purchased from BACHEM] | increased bone marrow MSC counts | – | – | – | reduction in the number of degenerative fibers | – | – | – | prevented a decrease in gastrocnemius muscle fiber diameter | increased | reduced fibrosis | improved measures of muscle strength | reduced | block cardiac fibrogenesis and remodeling
